Literature values as cited in publication PMC10017685 (Nature Communications, 2023).
Like-named read-outs stand apart in the source and are kept apart here.

System: human erythrocytes
Parameters: method as in DBAASP
Conditions: cited from earlier work
[1] = toxicity class label 1 or 0, meaning of the labels not given, DBAASP HC50 data, human erythrocytes, ref DBAASP

Sequence | Class (dedicated toxicity dataset used for toxicity classifier evaluation) [1] | Class (dedicated toxicity dataset used for toxicity classifier evaluation)
GLLKRIKKLLKKIKKLL [DBAASP_8595] | 1 | –
GFGSLLGKALRLGANVL [DBAASP_3772] | 0 | –
ILGKLLKTAAKLLSNL [DBAASP_4365] | 0 | –
SAVGRHLRRFLLRKHRKH [DBAASP_7660] | 0 | –
KFKKVIWKSFL [DBAASP_13719] | 0 | –
KFLGTLVNLAKKIL [DBAASP_5014] | 0 | –
FLPLLASLFSRLF [DBAASP_4935] | 1 | –
FLQHIIGALSHFF [DBAASP_10247] | 0 | –
FLGALIKGAIHGGRFIHGMIQNHH [DBAASP_1413] | 0 | –
HFLGTLKNLAKKIL [DBAASP_5019] | 0 | –
RWCRRYRVRVRGVLVYAYVCW [DBAASP_13505] | 0 | –
KIAKIAGKIAKIAGKIAKIAGKIA [DBAASP_14995] | 1 | –
GLKLLLSLGLKLL [DBAASP_13848] | 0 | –
KWKVFKKAEKMIRNIRNKIVK [DBAASP_11863] | 0 | –
FFRLLFHGVHHVGKIKPRA [DBAASP_1429] | 0 | –
GLFDVIKKLLKKIGGL [DBAASP_8593] | 1 | –
VKWRWKKWRWKWKWKV [DBAASP_8776] | 0 | –
SKVGRHGRRFGHRAHRKL [DBAASP_7662] | 0 | –
FLPGILKVAANVVPGVICAITKKC [DBAASP_16462] | 0 | –
KLLKRIKTLL [DBAASP_3149] | 0 | –
GWKKWFNRAKKVGKTVGGLAVDHYL [DBAASP_996] | 0 | –
FLKGIVGKLGKLF [DBAASP_9110] | 0 | –

Sequence | Class (dedicated toxicity dataset used for toxicity classifier evaluation) [1] | Class (dedicated toxicity dataset used for toxicity classifier evaluation)
KKVLKAAA [DBAASP_7361] | 0 | –
GIGKFLKKAKKFGKAFVKILKK [DBAASP_763] | 0 | –
KALWKTMLKKLGTMAL [DBAASP_10105] | 0 | –
GIKEFAHSLGKFGKAFVGGILNQ [DBAASP_3817] | 0 | –
GKLGPLLKIAAKVGSKLL [DBAASP_11238] | 0 | –
FLGALLKIGAKVLPSVLCGIFKKC [DBAASP_14203] | 1 | –
DSHAKRHHGYKRKFHEKHHSHRGY [DBAASP_15] | 0 | –
RWQWRWQWR [DBAASP_10099] | 0 | –
CAKAKAKAGSGAKAKAKAC [DBAASP_351] | 0 | –
GLLGPLLKIAAKVGKNLL [DBAASP_4924] | 0 | –
GIWKTIKSMGKVFAGKIKQNL [DBAASP_703] | 0 | –
IFGAILPLALGALKNLIK [DBAASP_3892] | 1 | –
FLSTALKVAANVVPTLFCKITKKC [DBAASP_1888] | 0 | –
GLFDIWKWWRWRR [DBAASP_10052] | 0 | –
FFHHIFRGIVHVGKKIHRLVTG [DBAASP_9986] | 0 | –
FFPLIFGALSSILPKIL [DBAASP_18209] | 1 | –
SAVLRHLRRFLLRKHRKH [DBAASP_7661] | 0 | –
AILTTLANWARKFL [DBAASP_3561] | 0 | –
FLPIVAGLAANFLPKIVCKITKKC [DBAASP_1889] | 1 | –
PFKIDIHLGGY [DBAASP_7635] | 0 | –
GLNALKKFFQGIHEAIKLINNHVQ [DBAASP_6934] | 0 | –
SAVGRHGRRFGLRKHRKH [DBAASP_3348] | 0 | –

Sequence | Class (dedicated toxicity dataset used for toxicity classifier evaluation) [1] | Class (dedicated toxicity dataset used for toxicity classifier evaluation)
GIMSSLMKKLAKHIAK [DBAASP_8895] | 0 | –
KIKWILKYWKWS [DBAASP_10700] | 0 | –
VQWRIRVAVIRK [DBAASP_7680] | 0 | –
GLNALKKVFQGIHEAIKLFNNHVQ [DBAASP_6937] | 0 | –
VKKFAWWWAFLKK [DBAASP_11303] | 0 | –
GLLKWIKTLL [DBAASP_3140] | 1 | –
GRFKRFRKKFKKLFKKLS [DBAASP_628] | 0 | –
FLPAIVGAAAKFLPKIFCAISKKC [DBAASP_4213] | 1 | –
RRWYRRWYRRWY [DBAASP_17315] | 0 | –
HFLKTLVNLAKKIL [DBAASP_5017] | 0 | –
RRGCFRVCYRGFCFQRCR [DBAASP_12233] | – | 0
GRKKRRQRRRGALWKSLLKNVGKA [DBAASP_11807] | – | 0
VKRFKKFFRKFKKSV [DBAASP_8772] | 0 | –
GVFLDALKKFAKGGMNAVLNPK [DBAASP_3156] | 0 | –
ILPILGNLLNSLL [DBAASP_3403] | 0 | –
FLPLLLAGLPKLLCLFFKKC [DBAASP_1470] | 1 | –
GLKALKKVFKGIHKAIKLINKHVQ [DBAASP_6931] | 0 | –
KIWFQNRRMKWKK [DBAASP_8800] | 0 | –
FLPGILKVAAK [DBAASP_16464] | 0 | –
LWGALLGLGSTLLSKL [DBAASP_18167] | 1 | –
